In patent publication EP0291007A1, “Rhodanine derivative, process for preparing the same and pharmaceutical composition containing the same” (KAKEN PHARMACEUTICAL CO., LTD., priority 1987, dated 1988):
Marks after values point to notes of the source that are not given here.

What was measured:
[1] = tested on: accumulation of sorbitol in nervous tissues; assay: Inhibiting activity of the accumulation of sorbitol in nervous tissues of streptozotocin-diabetic rats; type: in vivo, SD male rats; conditions: comparison compounds with linear alkyl group at 5-position; dose not stated
[2] = tested on: accumulation of sorbitol in nervous tissues; assay: as above; type: in vivo, SD male rats; conditions: single dose 48 h after streptozotocin, sciatic nerve sorbitol 5 hours after administration, mean ± spread
Method: After preliminary breeding SD male rats (6 weeks old) in this laboratory for 5 days, streptozotocin (made by Sigma Chemical Company) was administered intravenously (45 mg/kg body weight) to the rats to destroy β cells of Langerhans' islets in pancreas. Thus, rats suffering from diabetes were obtained.
After 48 hours from the administration of streptozotocin, the rhodanine derivative suspended in a 5 % aqueous solution of gum arabic was administered orally (100 mg/kg body weight or 25 mg/kg body weight) to the rats suffering from diabetes.
On the other hand, a 5 % aqueous solution of gum arabic having no rhodanine derivative was administered orally (5 mℓ/kg body weight) to the rats (a control group).
After 5 hours from the administration, the rats were sacrificed by the decapitation and bled to death. Immidiately, the sciatic nervous tissues of the rats were excised and frozen with dry ice. The excised sciatic nervous tissues were stored at -70°C until the sorbitol amount was measured.
After the wet weights of nervous tissues were measured, the tissues were homogenized in 1.0 mℓ of distilled water by using a homogenizer, to which 0.2 mℓ of a 4.5 % aqueous solution of barium hydroxide and 0.2 mℓ of a 5 % aqueous solution of zinc sulfate were added. The mixture was centrifuged for 10 minutes at 3,000 rpm to remove a precipitate. Ion exchange resins "Dowex 50 W" (Dow Chemical Co.) and "Duolite A-4" (Sumitomo Chemical Company, Limited.) purchased were added in small amounts to the obtained supernatant to desalt, which was recentrifuged to obtain a supernatant. To 0.5 mℓ of the extract of sorbitol were added 1.0 mt of a 50 mM glycine-sodium hydroxide buffer solution (pH 9.4) containing 0.2 mM nicotinamide adenine dinucleotide (NAD) and 50 µℓ of an enzyme solution containing 83 µg of sorbitol dehydrogenase (commercially available from BOEHRINGER MANNHEIM CORPORATION), and the mixture was reacted at room temperature for one hour. The amount of NADH formed by oxidation of sorbitol was measured by using a spectrofluorimeter and a sorbitol concentration in the extracts was measured. From the obtained results, sorbitol concentrations in nervous tissues (n mole/mg wet weight) were calculated.
A difference between the sorbitol content of the normal rat (0.12 ± 0.01 n mole/mg) and that of the rat suffering from diabetes (0.81 ± 0.06 n mole/mg) was defined as an amount of sorbitol accumulated in the tissues due to diabetes (hereinafter referred to as "sorbitol amount due to diabetes"). Also, a difference between the sorbitol content of the rat suffering from diabetes (0.81 ± 0.06 n moles/mg) and the sorbitol content of the rat suffering from diabetes which was administered the rhodanine derivative was defined as a lowering of the amount of sorbitol due to administration of the rhodanine derivative (hereinafter referred to as "lowering of sorbitol").
A lowering percentage (%) was defined as a percentage of the lowering of sorbitol to the sorbitol amount due to diabetes. The lowering percentages of the rhodanine derivatives (Compound Nos. 1-11) are shown in Table 3 (administered 100 mg/kg body weight) and Table 4 (administered 25 mg/kg body weight) with the number of rats suffering from diabetes.

[3] = tested on: male ddY mice; assay: Acute toxicity in mice; type: in vivo; conditions: oral, up to a dose of 2,000 mg/kg body weight, observed for 2 weeks
From the text: (§1) The acute toxicity in mice was examined by using the rhodanine derivatives of compound Nos. 1, 2, 5, 7 and 10.

[4] = Acute toxicity in mice; type: in vivo; conditions: mouse, in vivo; oral, mice observed for 2 weeks; read-out: LD₅₀ (oral)
From the text: as §1

[5] = tested on: accumulation of galactitol in red blood cells; assay: Inhibiting activity of the accumulation of galactitol in red blood cells of galactose-fed dogs; type: in vivo, beagle dogs; conditions: 10 mg/kg body weight orally once daily for 3 days; blood 10 hours after galactose 15 g/kg; control group 125 ± 10
Method: Each of Compound Nos. 1-11 was administered orally in a dosage of 10 mg/kg body weight once daily for 3 days with a capsule (administration time: 9 a.m. to 9:30 a.m.) to a male or female beagle dogs (body weight: from 8 to 12 kg). As the control group, the dogs were administered with vacant capsules in the same manner as above. Dog foods containing galactose in an amount of 15 g/kg body weight were given to the dogs immediately after the final administration of the capsule. The dogs completely had eaten the dog foods for 5 to 10 minutes. The blood was collected from the cephalic vein of the dog using heparine sodium after 10 hours from the administration of galactose. The collected blood was centrifuged to give red blood cells. The obtained red blood cells were washed twice with a cold physiological saline solution and were hemolysed in distilled water having an equal volume to the red blood cells.
After removing protein from the obtained solution, the resulting solution was treated with ion exchange resins, "Dowex 50 W" and "Duolite A-4", desalted and lyophilized. After subjecting to the pre-treatment of galactitol with trimethyl silyl ether (TMS), the amount of galactitol accumulated in the red blood cells was measured by a gas chromatography.

[6] = tested on: rats suffering from diabetes; assay: Improving activity of the nerve conduction velocity in diabetic rats (tail nerve, method of Miyoshi); type: in vivo; conditions: 100 mg/kg body weight once daily for 2 weeks, control group 24.5 ± 1.2, normal rat 38.4 ± 2.2
Method: Rats suffering from diabetes for the test were prepared in the same manner as in Example 13.
From the day after the administration of streptozotocin, each of Compound Nos. 1-11 suspended in a 5 % aqueous solution of gum arabic was administrated to the rats in a dosage of 100 mg/kg body weight once daily for 2 weeks.
As the control groups, a 5 % aqueous solution of gum aratic having no rhodanine derivative was administered (5 mℓ/kg body weight) in the same manner as above to the rats.
Two weeks later, the conduction velocity of nerve of the rats was measured in accordance with the method of Miyoshi [Fukuoka Medical Jounal, 62(7), 588 to 603(1971)]. In this test, the nerves of the rats' tails were used as materials studied.
The rats were anesthetized with pentobarbital (30 to 45 mg/kg body weight, intraperitoneal administration), and then the conduction velocities of nerves were measured in a constant-temperature box having a temperature of 40°C.
The nerve of rat's tail was pricked with needle electrodes at a portion of about 1 cm from the anus (the first stimulation point) and at a portion of about 5 cm in a distal direction from the first stimulation point (the second stimulation point). Further, the segmental muscle of the rat's tail was pricked with a coaxial needle electrode at a portion of about 5 cm in a distol direction from the second stimulation point. The longitudinal nerve trunk of the rat's tail was stimulated at the first stimulation point and the second stimulation point to record action potentials of the provoked muscle.
The conduction velocity of nerve was calculated as follows: [formula]
Also, with respect to the normal rats administered with a 5 % aqueous solution of gum arabic, the conduction velocity of nerve was measured in the same manner as above.

[7] = tested on: rats suffering from diabetes; assay: Inhibiting activity of the progress of cataract in diabetic rats (lens opacity score by slit lamp); type: in vivo; conditions: 100 mg/kg body weight orally daily for 5 weeks; average lens score (0-4) of both eyes; control group 1.46 ± 0.12, normal rats 0
Method: Rats suffering from diabetes for the test were produced in the same manner as in Example 13.
From the day after the administration of streptozotocin, each of Compound Nos. 1-11 suspended in a 5 % aqueous solution of gum arabic was administered orally 100 mg/kg body weight daily for 5 weeks to the rats. As the control group, a 5 % aqueous solution of gum arabic having no rhodanine derivative was administered (5 mℓ/kg body weight) to the rats in the same manner as above.
After administering streptozotocin, lenses of the rats were observed by using a slit lump (commercially available from KOWA Co., Ltd. under a trade name "Kowa SL-2") every second or third day for 5 weeks, sufficiently keeping the lenses mydriasis with a mydriatic (commercially available from Santen Pharmaceutical Co., Ltd. under the trade name "MYDRIN-P".
The opaqueness of the lenses was estimated according to the following criteria. Score 0: There was no change in the lenses. […] Score 3: Opacity was observed over the whole of lens' surface and the fundus oculi was not seen as if projected through the lens. Score 4: The nucleus lentis became opaque.
Also, with respect to the normal rats administered with a 5 % aqueous solution of gum arabic, the opaqueness were estimated in the same manner as above.

Row | Structure (SMILES) | inhibition of the accumulation of sorbitol [1] | Lowering percentage (%) ([2]; 25 mg/kg body weight orally) | Lowering percentage (%) ([2]; 100 mg/kg body weight orally) | dead mice [3] | LD50 at 336 h [4] [mg/kg] | Amount of galactitol in red blood cells (ng/g hemoglobin) [5] [ng/g hemoglobin] | Conduction velocity of nerve (m/sec) [6] [m/sec] | Opaqueness [7]
1 | CCCCC1SC(=S)N(CC(=O)O)C1=O (stereo not drawn) [3-carboxymethyl-5-n-butylrhodanine] | hardly inhibited the accumulation of sorbitol | – | – | – | – | – | – | –
2 | CCC(CC)C1SC(=S)N(CC(=O)O)C1=O (stereo not drawn) [Compound No. 1, 3-Carboxymethyl-5-(1-ethylpropyl)rhodanine] | – | 19.8 ± 3.2 | 51.5 ± 4.8*^3% | no dead mice were observed | > 2000 | 82 ± 6 | 36.2 ± 3.4 | 0.98 ± 0.06
3 | CC(C)C(C)C1SC(=S)N(CC(=O)O)C1=O (stereo not drawn) [Compound No. 2, 3-Carboxymethyl-5-(1,2-dimethylpropyl)-rhodanine] | – | 36.5 ± 4.7 | 68.2 ± 10.6*^3% | no dead mice were observed | > 2000 | 66 ± 5 | 36.6 ± 2.7 | 0.61 ± 0.07
4 | CCC(CCCl)C1SC(=S)N(CC(=O)O)C1=O (stereo not drawn) [Compound No. 3, 3-Carboxymethyl-5-(1-ethyl-3-chloropropyl)-rhodanine] | – | 34.0 ± 6.2 | 62.4 ± 9.4*^3% | – | – | 57 ± 12 | 34.2 ± 1.8 | 0.55 ± 0.06
5 | CC(CCCCl)C1SC(=S)N(CC(=O)O)C1=O (stereo not drawn) [Compound No. 4, 3-Carboxymethyl-5-(1-methyl-4-chlorobutyl)-rhodanine] | – | 32.2 ± 4.4 | 60.1 ± 7.3*^3% | – | – | 59 ± 6 | 37.0 ± 3.5 | 0.68 ± 0.09
6 | CCCC(CC)C1SC(=S)N(CC(=O)O)C1=O (stereo not drawn) [Compound No. 5, 3-Carboxymethyl-5-(1-ethylbutyl)rhodanine] | – | 15.2 ± 2.1 | 30.9 ± 8.8*^1% | no dead mice were observed | > 2000 | 94 ± 7 | 32.4 ± 2.8 | 0.92 ± 0.10
7 | CCCC(CCC)C1SC(=S)N(CC(=O)O)C1=O (stereo not drawn) [Compound No. 6, 3-Carboxymethyl-5-(1-propylbutyl)rhodanine] | – | 16.1 ± 3.2 | 28.4 ± 7.4*^1% | – | – | 86 ± 12 | 33.0 ± 3.1 | 0.90 ± 0.12
8 | CC(C)(C)CC1SC(=S)N(CC(=O)O)C1=O (stereo not drawn) [Compound No. 7, 3-Carboxymethyl-5-(2,2-dimethylpropyl)rhodanine] | – | 52.5 ± 3.4 | 80.9 ± 5.8*^3% | no dead mice were observed | > 2000 | 48 ± 3 | 38.5 ± 4.0 | 0.32 ± 0.05
9 | CC(C)CCC1SC(=S)N(CC(=O)O)C1=O (stereo not drawn) [Compound No. 8, 3-Carboxymethyl-5-(3-methylbutyl)rhodanine] | – | 12.2 ± 1.8 | 23.0 ± 6.2*^1% | – | – | 72 ± 11 | 35.2 ± 1.5 | 0.89 ± 0.10
10 | CCC(C)CC1SC(=S)N(CC(=O)O)C1=O (stereo not drawn) [Compound No. 9, 3-Carboxymethyl-5-(2-methylbutyl)rhodanine] | – | 19.0 ± 3.5 | 49.9 ± 6.9*^2% | – | – | 69 ± 10 | 33.6 ± 2.6 | 0.72 ± 0.11
11 | CCC(CC)CC1SC(=S)N(CC(=O)O)C1=O (stereo not drawn) [Compound No. 10, 3-Carboxymethyl-5-(2-ethylbutyl)rhodanine] | – | 18.2 ± 2.0 | 42.9 ± 7.6*^2% | no dead mice were observed | > 2000 | 90 ± 10 | 34.1 ± 4.3 | 0.74 ± 0.12
12 | O=C(O)CN1C(=O)C(CC2CCCCC2)SC1=S (stereo not drawn) [Compound No. 11, 3-Carboxymethyl-5-cyclo-hexylmethylrhodanine] | – | 13.0 ± 2.9 | 27.7 ± 1.6*^1% | – | – | 87 ± 13 | 31.8 ± 1.3 | 0.90 ± 0.13
